Measured values: ChEMBL document CHEMBL5370531, “Design, synthesis and pharmacological evaluation of 2,3-dihydrobenzofuran IRAK4 inhibitors for the treatment of diffuse large B-cell lymphoma” (Eur J Med Chem, 2023)

Experiments:
OCI-Ly10 = assay: Induction of apoptosis in human OCILY10 cells at 1 uM incubated for 48 hrs by Annexin V-FITC/PI staining based flow cytometry; format: functional
[1] = target: T1, Interleukin-1 receptor-associated kinase 4 (Homo sapiens, UniProt Q9NWZ3); assay: Inhibition of IRAK4 (unknown origin) by Z-LYTE enzymatic kinase assay
T1 sequence (Q9NWZ3 whole entry): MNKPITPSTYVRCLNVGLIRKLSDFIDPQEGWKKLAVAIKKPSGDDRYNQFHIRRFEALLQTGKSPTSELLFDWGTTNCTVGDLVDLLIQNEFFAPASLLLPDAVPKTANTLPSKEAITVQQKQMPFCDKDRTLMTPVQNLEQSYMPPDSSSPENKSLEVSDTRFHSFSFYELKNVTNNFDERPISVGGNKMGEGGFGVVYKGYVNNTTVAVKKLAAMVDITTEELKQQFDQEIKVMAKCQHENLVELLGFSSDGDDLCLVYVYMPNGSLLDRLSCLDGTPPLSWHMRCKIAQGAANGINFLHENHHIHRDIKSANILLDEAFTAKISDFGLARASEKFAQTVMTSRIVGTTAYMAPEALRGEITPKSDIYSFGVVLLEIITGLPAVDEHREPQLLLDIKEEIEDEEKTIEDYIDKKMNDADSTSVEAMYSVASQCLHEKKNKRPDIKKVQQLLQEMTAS

With `Cn1cc(-c2cc3c(cc2NC(=O)c2coc(-c4ccnc(N)c4)n2)CC(C)(C)O3)cn1` the Activity (OCI-Ly10) was 92.3% and the IC50 [1] was 8.7 nM.
